Test results from ChEMBL document CHEMBL4229516, “Design, synthesis and biological evaluation of a series of novel GPR40 agonists containing nitrogen heterocyclic rings” (Bioorg Med Chem Lett, 2018).
One block for each compound: values may come before it.

Tests used:
[1] = biological target: T1, Free fatty acid receptor 1 (Homo sapiens, UniProt O14842); assay: Transactivation of human GPR40 expressed in HEK293 cells after 24 hrs by Elk-Gal4 luciferase reporter assay; assay type: functional, cell-based
[2] = biological target: T1, Free fatty acid receptor 1; assay: Transactivation of human GPR40 expressed in HEK293 cells at 10 uM after 24 hrs by Elk-Gal4 luciferase reporter assay relative to TAK-875; assay type: functional, cell-based
Mus musculus [3] = assay: Antidiabetic activity in ICR mouse assessed as blood glucose levels at 50 mg/kg, po administered 1 hr prior to glucose challenge measured at 60 mins post glucose challenge (reference value: 175.8 +/- 25 mg/dl); assay type: functional
Mus musculus [4] = assay: Antidiabetic activity in ICR mouse assessed as blood glucose levels at 50 mg/kg, po administered 1 hr prior to glucose challenge measured at 120 mins post glucose challenge (reference value: 53.7 +/- 9.9 mg/dl); assay type: functional
CYP1A2 [5] = biological target: T2, CYP1A2 (Homo sapiens, UniProt P05177); assay: Inhibition of CYP1A2 in human liver microsomes at 5 uM using phenacetin as substrate by LC-MS/MS analysis relative to control; assay type: ADME; conditions: probe phenacetin
T2 sequence (P05177 whole entry): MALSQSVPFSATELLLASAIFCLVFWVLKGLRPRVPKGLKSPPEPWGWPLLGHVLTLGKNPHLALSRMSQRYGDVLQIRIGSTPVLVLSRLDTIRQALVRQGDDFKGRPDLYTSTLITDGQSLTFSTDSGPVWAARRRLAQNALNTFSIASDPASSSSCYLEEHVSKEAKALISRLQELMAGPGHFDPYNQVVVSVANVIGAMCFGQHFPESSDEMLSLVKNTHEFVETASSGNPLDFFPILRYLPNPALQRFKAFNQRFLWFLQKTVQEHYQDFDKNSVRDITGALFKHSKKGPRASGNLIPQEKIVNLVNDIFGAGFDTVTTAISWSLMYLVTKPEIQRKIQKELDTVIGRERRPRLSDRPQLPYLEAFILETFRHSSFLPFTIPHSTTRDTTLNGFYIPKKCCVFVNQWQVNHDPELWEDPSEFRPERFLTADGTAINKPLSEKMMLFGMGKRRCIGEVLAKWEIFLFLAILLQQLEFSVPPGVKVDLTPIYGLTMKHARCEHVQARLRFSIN

Mus musculus [6] = assay: Antidiabetic activity in ICR mouse assessed as blood glucose AUC at 50 mg/kg, po administered 1 hr prior to glucose challenge measured after 120 mins post glucose challenge (reference value: 290 +/ 23.5 mg.hr/dl); assay type: functional, organism-based; design: dose 50 mg/kg, time < 2 hr
[7] = Induction of 16.8 mM glucose-stimulated insulin secretion in ICR mouse primary pancreatic islets assessed per protein at 10 uM after 1 hr by ELISA (reference value: 1.8 +/- 0.6 ng/ml); assay type: functional, Pancreatic islet
CYP2D6 [8] = biological target: T3, CYP2D6 (Homo sapiens, UniProt P10635); assay: Inhibition of CYP2D6 in human liver microsomes at 5 uM using dextromethorphan as substrate by LC-MS/MS analysis relative to control; assay type: ADME; conditions: probe dextromethorphan
CYP3A4 = CYP3A4 (Homo sapiens, UniProt P08684); assay: Inhibition of CYP3A4 in human liver microsomes at 5 uM using midazolam as substrate by LC-MS/MS analysis relative to control; assay type: ADME; conditions: probe midazolam
Mus musculus [9] = assay: Antidiabetic activity in ICR mouse assessed as blood glucose levels at 50 mg/kg, po administered 1 hr prior to glucose challenge measured at 30 mins post glucose challenge (reference value: 227.6 +/- 18.7 mg/dl); assay type: functional
CYP2C9 = CYP2C9 (Homo sapiens, UniProt P11712); assay: Inhibition of CYP2C9 in human liver microsomes at 5 uM using diclofenac sodium as substrate by LC-MS/MS analysis relative to control; assay type: ADME; conditions: probe diclofenac sodium
CYP2D6 [10] = biological target: T3, CYP2D6; assay: Inhibition of CYP2D6 in human liver microsomes at 2 uM using dextromethorphan as substrate by LC-MS/MS analysis relative to control; conditions: probe dextromethorphan
CYP1A2 [11] = biological target: T2, CYP1A2; assay: Inhibition of CYP1A2 in human liver microsomes at 10 uM using phenacetin as substrate by LC-MS/MS analysis relative to control; assay type: ADME; conditions: probe phenacetin
Mus musculus [12] = assay: Antidiabetic activity in ICR mouse assessed as reduction of blood glucose AUC at 50 mg/kg, po administered 1 hr prior to glucose challenge measured after 120 mins post glucose challenge relative to control; assay type: functional; design: scale not given: the % may be the effect or the level left

T1 sequence (O14842 whole entry, the tested form may be a part): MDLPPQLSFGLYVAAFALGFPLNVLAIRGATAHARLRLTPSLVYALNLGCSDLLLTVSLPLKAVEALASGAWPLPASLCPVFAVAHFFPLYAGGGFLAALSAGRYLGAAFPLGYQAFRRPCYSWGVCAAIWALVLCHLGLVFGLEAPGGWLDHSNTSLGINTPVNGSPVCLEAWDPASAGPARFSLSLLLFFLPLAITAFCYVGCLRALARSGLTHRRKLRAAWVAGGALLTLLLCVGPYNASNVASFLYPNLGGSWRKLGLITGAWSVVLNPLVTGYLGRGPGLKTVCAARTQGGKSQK
T3 sequence (P10635 whole entry): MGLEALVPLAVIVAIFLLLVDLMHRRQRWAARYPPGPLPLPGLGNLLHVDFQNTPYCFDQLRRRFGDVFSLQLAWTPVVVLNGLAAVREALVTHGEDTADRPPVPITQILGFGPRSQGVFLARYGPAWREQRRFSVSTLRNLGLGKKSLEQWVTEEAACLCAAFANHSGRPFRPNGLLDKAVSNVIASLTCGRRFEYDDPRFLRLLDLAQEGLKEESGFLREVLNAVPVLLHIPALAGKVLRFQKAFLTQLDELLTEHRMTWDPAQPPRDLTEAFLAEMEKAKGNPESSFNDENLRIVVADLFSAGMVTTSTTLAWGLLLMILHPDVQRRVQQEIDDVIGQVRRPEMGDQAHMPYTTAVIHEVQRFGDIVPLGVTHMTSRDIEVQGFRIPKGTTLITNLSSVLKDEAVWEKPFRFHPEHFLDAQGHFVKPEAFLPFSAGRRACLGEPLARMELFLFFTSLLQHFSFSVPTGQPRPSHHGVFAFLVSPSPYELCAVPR
Sequence of CYP3A4 (P08684 whole entry): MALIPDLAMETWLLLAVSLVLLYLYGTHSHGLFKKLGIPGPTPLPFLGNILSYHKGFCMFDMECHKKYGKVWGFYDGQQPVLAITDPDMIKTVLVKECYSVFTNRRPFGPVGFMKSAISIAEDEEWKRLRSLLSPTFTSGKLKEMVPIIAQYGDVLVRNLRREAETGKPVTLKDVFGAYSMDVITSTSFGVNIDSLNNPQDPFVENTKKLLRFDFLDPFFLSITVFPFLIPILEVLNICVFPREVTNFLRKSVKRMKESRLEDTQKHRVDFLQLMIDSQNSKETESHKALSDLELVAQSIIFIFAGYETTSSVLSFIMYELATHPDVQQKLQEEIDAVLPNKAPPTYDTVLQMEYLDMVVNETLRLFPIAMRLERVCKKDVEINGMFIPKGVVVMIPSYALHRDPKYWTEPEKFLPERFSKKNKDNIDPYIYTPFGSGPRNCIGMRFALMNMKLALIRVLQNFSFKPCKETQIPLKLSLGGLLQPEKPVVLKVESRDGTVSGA
Sequence of CYP2C9 (P11712 whole entry): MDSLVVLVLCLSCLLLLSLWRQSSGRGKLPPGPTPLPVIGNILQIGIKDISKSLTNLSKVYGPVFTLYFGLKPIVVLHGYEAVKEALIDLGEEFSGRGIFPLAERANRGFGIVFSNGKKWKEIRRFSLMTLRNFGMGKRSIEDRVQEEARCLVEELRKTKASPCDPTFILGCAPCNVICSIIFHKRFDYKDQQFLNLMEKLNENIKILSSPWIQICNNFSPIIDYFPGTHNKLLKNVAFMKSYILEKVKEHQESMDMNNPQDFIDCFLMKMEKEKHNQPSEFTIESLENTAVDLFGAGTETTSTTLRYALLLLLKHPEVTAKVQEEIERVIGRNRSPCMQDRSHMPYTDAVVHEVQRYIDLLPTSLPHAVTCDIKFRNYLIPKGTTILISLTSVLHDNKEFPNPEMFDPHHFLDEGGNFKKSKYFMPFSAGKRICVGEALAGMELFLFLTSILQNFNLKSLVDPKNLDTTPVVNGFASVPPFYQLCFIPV

EC50 [1]: 2200 nM
Activity [2]: 84.2%
Compound: O=C(O)C[C@@H]1COc2cc(OCc3cccc(-c4cccc5c4CCN(C(=O)c4ccccc4)C5)c3)ccc21

Activity [2]: 54.8%
Compound: O=C(O)C[C@@H]1COc2cc(OCc3cccc(-c4cccc5c4CCN(CCc4ccccc4)C5)c3)ccc21

Activity [2]: 23.8%
Compound: CC(C)(CC(=O)O)c1ccc(OCc2cccc(-c3ccc4c(c3)CN(Cc3ccccc3)C4)c2)cc1

EC50 [1]: 4000 nM
Activity [2]: 85%
Compound: O=C(O)C[C@@H]1COc2cc(OCc3cccc(-c4ccc5c(c4)CCN(CCc4ccccc4)C5)c3)ccc21

inhibition at 5 µM (CYP1A2 [5]): 25.7%
inhibition at 5 µM (CYP2D6 [8]): 39.5%
EC50 [1]: 800 nM
Activity [2]: 108%
inhibition at 5 µM (CYP3A4): 27.6%
inhibition at 5 µM (CYP2C9): 3.94%
Compound: Cl.O=C(O)C[C@@H]1COc2cc(OCc3cccc(-c4ccc5c(c4)CN(Cc4ccccc4)CC5)c3)ccc21
Activity (Mus musculus [3]): 172.7 mg/dL
Activity (Mus musculus [4]): 58 mg/dL
AUC (Mus musculus [6]): 2.81e+06 ng·h/mL
Activity [7]: 2.8 ng/mL
Activity (Mus musculus [9]): 214.1 mg/dL

Activity [2]: 18.9%
Compound: O=C(O)COc1ccc(OCc2cccc(-c3ccc4c(c3)CN(Cc3ccccc3)C4)c2)cc1

Compound: C=C[C@H]1C[N@@]2CC[C@H]1C[C@@H]2[C@@H](O)c1ccnc2ccc(OC)cc12 [QUINIDINE]
inhibition at 2 µM (CYP2D6 [10]): 93.3%

Activity [2]: 20.4%
Compound: O=C(O)C[C@@H]1COc2cc(OCc3cccc(-c4ccc5c(c4)CN(C(=O)Cc4ccccc4)CC5)c3)ccc21

inhibition at 5 µM (CYP1A2 [5]): 28%
inhibition at 5 µM (CYP2D6 [8]): 23.2%
inhibition at 5 µM (CYP3A4): 34%
inhibition at 5 µM (CYP2C9): 21%
Compound: Cc1cc(OCCCS(C)(=O)=O)cc(C)c1-c1cccc(COc2ccc3c(c2)OC[C@H]3CC(=O)O)c1
Activity (Mus musculus [3]): 120 mg/dL
Activity (Mus musculus [4]): 49 mg/dL
AUC (Mus musculus [6]): 2.07e+06 ng·h/mL
Activity [7]: 2.1 ng/mL
Activity (Mus musculus [9]): 155.2 mg/dL

Activity [2]: 77%
Compound: O=C(O)C[C@@H]1COc2cc(OCc3cccc(-c4ccc5c(c4)CN(CCc4ccccc4)C5)c3)ccc21

inhibition at 5 µM (CYP2C9): 94.9%
Compound: Nc1ccc(S(=O)(=O)Nc2ccnn2-c2ccccc2)cc1 [SULFAPHENAZOLE]

Activity [2]: 60.8%
Compound: O=C(O)C[C@@H]1COc2cc(OCc3cccc(-c4ccc5c(c4)CN(C(=O)c4ccccc4)C5)c3)ccc21

Activity [2]: 4.6%
Compound: O=C(O)COc1ccc(OCc2cccc(-c3ccc4c(c3)CN(Cc3ccccc3)CC4)c2)cc1

Activity [2]: 28.8%
Compound: O=C(O)COc1ccc(OCc2cccc(-c3cccc4c3CCN(Cc3ccccc3)C4)c2)cc1

Activity [2]: 31.6%
Compound: O=C(O)C[C@@H]1COc2cc(OCc3cccc(-c4ccc5c(c4)CCN(C(=O)Cc4ccccc4)C5)c3)ccc21

Activity [2]: 34.8%
Compound: O=C(O)C[C@@H]1COc2cc(OCc3cccc(-c4ccc5c(c4)CN(C(=O)Cc4ccccc4)C5)c3)ccc21

Activity [2]: 36.8%
Compound: CC(=O)N1Cc2ccc(-c3cccc(COc4ccc5c(c4)OC[C@H]5CC(=O)O)c3)cc2C1

Activity [2]: 22.8%
Compound: CC(C)(CC(=O)O)c1ccc(OCc2cccc(-c3ccc4c(c3)CN(Cc3ccccc3)CC4)c2)cc1

Activity [2]: 43.6%
Compound: CC(=O)N1CCc2c(cccc2-c2cccc(COc3ccc4c(c3)OC[C@H]4CC(=O)O)c2)C1

Activity [1]: 46%
Compound: O=C(O)C[C@@H]1COc2cc(OCc3cccc(-c4ccc5c(c4)CN(C(=O)c4ccccc4)CC5)c3)ccc21

Activity [2]: 17.8%
Compound: O=C(O)COc1ccc(OCc2cccc(-c3ccc4c(c3)CCN(Cc3ccccc3)C4)c2)cc1

inhibition at 10 µM (CYP1A2 [11]): 71.4%
Compound: Cc1nc2c([nH]1)c(=O)n(C)c(=O)n2Cc1ccco1 [FURAFYLLINE]

Activity [2]: 7.8%
Compound: CCN1CCc2c(cccc2-c2cccc(COc3ccc4c(c3)OC[C@H]4CC(=O)O)c2)C1

EC50 [1]: 5400 nM
Activity [2]: 89.4%
Compound: O=C(O)C[C@@H]1COc2cc(OCc3cccc(-c4cccc5c4CCN(Cc4ccccc4)C5)c3)ccc21

inhibition at 5 µM (CYP1A2 [5]): 20.9%
inhibition at 5 µM (CYP2D6 [8]): 23.6%
EC50 [1]: 1200 nM
Activity [2]: 136%
inhibition at 5 µM (CYP3A4): 30.7%
inhibition at 5 µM (CYP2C9): 16.2%
Compound: Cl.O=C(O)C[C@@H]1COc2cc(OCc3cccc(-c4ccc5c(c4)CCN(Cc4ccccc4)C5)c3)ccc21
Activity (Mus musculus [3]): 150.2 mg/dL
Activity (Mus musculus [4]): 49.9 mg/dL
Activity [7]: 2.9 ng/mL
Activity (Mus musculus [9]): 196.2 mg/dL
Activity (Mus musculus [12]): 13.8%

Activity [2]: 39.8%
Compound: O=C(O)C[C@@H]1COc2cc(OCc3cccc(-c4ccc5c(c4)CCN(C(=O)c4ccccc4)C5)c3)ccc21

Activity [2]: 5%
Compound: CC(=O)N1CCc2cc(-c3cccc(COc4ccc5c(c4)OC[C@H]5CC(=O)O)c3)ccc2C1

EC50 [1]: 800 nM
Activity [2]: 90%
Compound: CC(C)(CC(=O)O)c1ccc(OCc2cccc(-c3cccc4c3CCN(Cc3ccccc3)C4)c2)cc1

Activity [2]: 58.6%
Compound: CC(C)(CC(=O)O)c1ccc(OCc2cccc(-c3ccc4c(c3)CCN(Cc3ccccc3)C4)c2)cc1

EC50 [1]: 3000 nM
Activity [2]: 89.8%
Compound: O=C(O)C[C@@H]1COc2cc(OCc3cccc(-c4ccc5c(c4)CN(Cc4ccccc4)C5)c3)ccc21
